Reference: BindingDB's records for doi:10.1021/jm00140a010 (1982)
pIC50: −log10 of the molar value. Structures can show the parent of a compound that is named as a salt.

molecular target: Angiotensin-converting enzyme; assay: Concentration required to inhibit the activity of Angiotensin I converting enzyme by 50%

SMILES	pIC50
CC(=O)NC(Cc1ccccc1)C(=O)CCC(=O)N1CCC[C@H]1C(=O)O (stereo not given in full) [1-(5-Acetylamino-4-oxo-6-phenyl-hexanoyl)-pyrrolidine-2-carboxylic acid]	6.48
NC(Cc1ccccc1)C(=O)CCC(=O)N1CCC[C@H]1C(=O)O (stereo not given in full) [1-(5-Amino-4-oxo-6-phenyl-hexanoyl)-pyrrolidine-2-carboxylic acid; hydrochloride]	4.60
O=C(NC(Cc1ccccc1)=C(CCC(=O)N1CCC[C@H]1C(=O)O)NO)c1ccccc1 [1-(5-Benzoylamino-4-hydroxyimino-6-phenyl-hexanoyl)-pyrrolidine-2-carboxylic acid]	5.92
NC(=O)[C@@H]1CCCN1C(=O)CCC(=O)C(Cc1ccccc1)NC(=O)c1ccccc1 (stereo not given in full) [1-(5-Benzoylamino-4-oxo-6-phenyl-hexanoyl)-pyrrolidine-2-carboxylic acid amide]	6.82
O=C(NC(Cc1cccnc1)C(=O)CCC(=O)N1CCC[C@H]1C(=O)OCc1ccccc1)c1ccccc1 (stereo not given in full) [1-(5-Benzoylamino-4-oxo-6-pyridin-3-yl-hexanoyl)-pyrrolidine-2-carboxylic acid benzyl ester]	7.82
O=C(NC(Cc1cccnc1)C(=O)CCC(=O)N1CCC[C@H]1C(=O)O)c1ccccc1 (stereo not given in full) [1-(5-Benzoylamino-4-oxo-6-pyridin-3-yl-hexanoyl)-pyrrolidine-2-carboxylic acid]	8.24
CC(NC(=O)c1ccccc1)C(=O)CCC(=O)N1CCC[C@H]1C(=O)O (stereo not given in full) [1-(5-Benzoylamino-4-oxo-hexanoyl)-pyrrolidine-2-carboxylic acid]	6.52
O=C(NC(Cc1ccccc1)C(=O)CCC(=O)N1CCC[C@H]1C(=O)O)OCc1ccccc1 (stereo not given in full) [1-(5-Benzyloxycarbonylamino-4-oxo-6-phenyl-hexanoyl)-pyrrolidine-2-carboxylic acid]	6.62
O=C(NC(Cc1ccccc1)C(=O)CCCC(=O)N1CCC[C@H]1C(=O)O)c1ccccc1 (stereo not given in full) [1-(6-Benzoylamino-5-oxo-7-phenyl-heptanoyl)-pyrrolidine-2-carboxylic acid]	7.38

The next lines start with the values.

pIC50	SMILES
5.80	Cc1ccccc1C(=O)NC(Cc1ccccc1)C(=O)CCC(=O)N1CCC[C@H]1C(=O)OCc1ccccc1 (stereo not given in full) [1-[5-(2-Methyl-benzoylamino)-4-oxo-6-phenyl-hexanoyl]-pyrrolidine-2-carboxylic acid benzyl ester]
7.34	Cc1ccccc1C(=O)NC(Cc1ccccc1)C(=O)CCC(=O)N1CCC[C@H]1C(=O)O (stereo not given in full) [1-[5-(2-Methyl-benzoylamino)-4-oxo-6-phenyl-hexanoyl]-pyrrolidine-2-carboxylic acid]
8.85	COc1ccc(CC(NC(=O)c2ccccc2)C(=O)CCC(=O)N2CCC[C@H]2C(=O)O)cc1OC (stereo not given in full) [1-[5-Benzoylamino-6-(3,4-dimethoxy-phenyl)-4-oxo-hexanoyl]-pyrrolidine-2-carboxylic acid]
7.07	O=C(NC(Cc1ccc(OCc2ccccc2)cc1)C(=O)CCC(=O)N1CCC[C@H]1C(=O)OCc1ccccc1)c1ccccc1 (stereo not given in full) [1-[5-Benzoylamino-6-(4-benzyloxy-phenyl)-4-oxo-hexanoyl]-pyrrolidine-2-carboxylic acid benzyl ester]
5.07	CC(C)(C)OC(=O)[C@@H]1CCCN1C(=O)CCC(=O)C(Cc1ccc(OCc2ccccc2)cc1)NC(=O)c1ccccc1 (stereo not given in full) [1-[5-Benzoylamino-6-(4-benzyloxy-phenyl)-4-oxo-hexanoyl]-pyrrolidine-2-carboxylic acid tert-butyl ester]
8.00	O=C(NC(Cc1ccc(OCc2ccccc2)cc1)C(=O)CCC(=O)N1CCC[C@H]1C(=O)O)c1ccccc1 (stereo not given in full) [1-[5-Benzoylamino-6-(4-benzyloxy-phenyl)-4-oxo-hexanoyl]-pyrrolidine-2-carboxylic acid]
8.33	O=C(NC(Cc1ccc(O)cc1)C(=O)CCC(=O)N1CCC[C@H]1C(=O)O)c1ccccc1 (stereo not given in full) [1-[5-Benzoylamino-6-(4-hydroxy-phenyl)-4-oxo-hexanoyl]-pyrrolidine-2-carboxylic acid]
7.70	O=C(CCC(=O)N1CCC[C@H]1C(=O)O)C(Cc1ccccc1)NC(=O)C1CCCO1 (stereo not given in full) [1-{4-Oxo-6-phenyl-5-[(tetrahydro-furan-2-carbonyl)-amino]-hexanoyl}-pyrrolidine-2-carboxylic acid]
8.85	O=C(NC(Cc1ccccc1)C(=O)CCC(=O)N1CCC[C@H]1C(=O)O)c1ccco1 (stereo not given in full) [1-{5-[(Furan-2-carbonyl)-amino]-4-oxo-6-phenyl-hexanoyl}-pyrrolidine-2-carboxylic acid]
6.74	O=C(CCC(=O)C(Cc1ccccc1)NC(=O)c1ccccc1)NC(Cc1ccccc1)C(=O)OCc1ccccc1 (stereo not given) [2-(5-Benzoylamino-4-oxo-6-phenyl-hexanoylamino)-3-phenyl-propionic acid benzyl ester]
7.55	O=C(CCC(=O)C(Cc1ccccc1)NC(=O)c1ccccc1)N[C@H](Cc1ccccc1)C(=O)O (stereo not given in full) [2-(5-Benzoylamino-4-oxo-6-phenyl-hexanoylamino)-3-phenyl-propionic acid]
